In one series the target is T1, C-Kit (Homo sapiens, UniProt P10721, K642E).
T1 construct: endogenous in cells; host or cells: ST882 (GIST882) cells
The series is described as follows: Western blot of C-Kit phosphorylation (Tyr703, Tyr721) in ST882 cells. It counts as cell-based. The following applies: 6 hours, read-out: inhibitory impact on C-Kit phosphorylation in GIST cells. The procedure:
A Western blot assay on treated cancer-derived cell lines (FIGS. 8C and 8D) was performed to determine the in-cell specificity of WBZ—4. […] After allowing the cells to attach for 24 hours, the cells were treated with 1 μM of WBZ—4 or Gleevec for 6 hours. For Western blotting, 50 μg of total protein were separated on a SDS-PAGE (Bio-Rad) and blotted onto nitrocellulose membranes (Bio-Rad Laboratories, Life Science Research, Hercules, Calif.). Antibodies used: anti phospho-c-Kit polyclonal antibody, Tyr703 and Tyr721 (Zymed Laboratories Inc., South San Francisco, Calif.), anti-c-Kit monoclonal antibody (E-1): sc-17806 (Santa Cruz Biotechnology) and anti β-actin monoclonal antibody (Sigma, St. Louis, Mo.). K562 cells were plated at 5×10^5 cells/well. […] Antibodies used: anti phospho-c-Abl (Tyr 412) monoclonal antibody 247C7 (Cell Signalling Technology Inc), anti-Abl monoclonal antibody (Sigma, St. Louis, Mo.).

The subject of a further series is JNK1/2. The series can be described thus: Western blot of phosphorylated kinases in neonatal rat ventricular myocytes (NRVM). It counts as cell-based. The following applies: 1-50 μM, 24 h, compared to untreated cells. For orientation: In western blotting, separated proteins are transferred to a membrane and probed.
In the next series the test system is ERK1/2. The series is described as above. It counts as cell-based. The following applies: 1-50 μM, 24 h, compared to untreated cultures. As to the method:
This protective role of WBZ—4 has also been validated in vivo. Animals used in these studies were handled in accordance with National Institutes of Health “Guide for the Care and Use of Laboratory Animals” [Department of Health and Human Services Publication No. (NIH) 85-23, Revised 1985]. […] NRVM were isolated from the hearts of 2 day-old Sprague-Dawley rat pups via collagenase digestion as previously described (Samarel and Engelmann, 1991). Dissociated cells were pre-plated for 1 hour in serum-free PC-1 medium to selectively remove nonmuscle cells. Myocytes were then plated in PC-1 medium at a density of 1600 cells per mm^2 onto collagen-coated, plastic 35-mm dishes, and left undisturbed in a 5% CO2 incubator for 24 h. Unattached cells were removed by aspiration, and the attached cells were maintained in a solution of DMEM/Medium 199 (4:1) containing antibiotic/antimycotic solution for 24 h. […] NRVM were homogenized in lysis buffer (Schlaepfer and Hunter, 1996). Equal amounts of extracted proteins were separated on 10% SDS-polyacrylamide gels with 5% stacking gels. […] Primary antibody binding was detected with horseradish-peroxidase conjugated goat anti-mouse or goat anti-rabbit secondary antibody, and visualized by enhanced chemiluminescence.

Series [1] has as its system brain natriuretic peptide (BNP). The series is described as follows: RT-PCR of BNP mRNA in left ventricle of treated mice. The following applies: GIST model mice after therapy.
The next series concerns the target T2, Chk1 (Homo sapiens, UniProt O14757).
T2 sequence (O14757 1-476): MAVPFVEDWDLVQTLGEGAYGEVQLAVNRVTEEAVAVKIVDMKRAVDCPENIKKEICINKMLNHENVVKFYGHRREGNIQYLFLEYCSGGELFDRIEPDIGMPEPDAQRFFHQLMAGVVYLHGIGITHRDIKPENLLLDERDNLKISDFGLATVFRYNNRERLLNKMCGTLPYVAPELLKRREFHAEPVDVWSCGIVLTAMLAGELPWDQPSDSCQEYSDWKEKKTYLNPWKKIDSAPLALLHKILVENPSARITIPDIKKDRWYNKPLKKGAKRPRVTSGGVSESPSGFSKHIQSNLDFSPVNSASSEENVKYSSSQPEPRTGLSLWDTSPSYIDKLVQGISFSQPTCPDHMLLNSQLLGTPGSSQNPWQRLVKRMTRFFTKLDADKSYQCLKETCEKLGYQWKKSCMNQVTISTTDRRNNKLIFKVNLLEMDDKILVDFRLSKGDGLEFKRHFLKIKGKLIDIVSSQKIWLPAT
The series can be described thus: kinetic spectrophotometric assay of phosphorylation rate. It counts as biochemical. From the text:
(§1) To assess the specificity and affinity for Src, the staurosporine derivative is compared with the parental compound. […] Kinetic spectrophotometric assays where performed as indicated above. These assays were geared at measuring the phosphorylation rate of peptide substrates in the presence of the kinase inhibitor at different concentrations.

Another series concerns the target T3, PDK1 (Homo sapiens, UniProt O15530).
T3 sequence (O15530 1-556): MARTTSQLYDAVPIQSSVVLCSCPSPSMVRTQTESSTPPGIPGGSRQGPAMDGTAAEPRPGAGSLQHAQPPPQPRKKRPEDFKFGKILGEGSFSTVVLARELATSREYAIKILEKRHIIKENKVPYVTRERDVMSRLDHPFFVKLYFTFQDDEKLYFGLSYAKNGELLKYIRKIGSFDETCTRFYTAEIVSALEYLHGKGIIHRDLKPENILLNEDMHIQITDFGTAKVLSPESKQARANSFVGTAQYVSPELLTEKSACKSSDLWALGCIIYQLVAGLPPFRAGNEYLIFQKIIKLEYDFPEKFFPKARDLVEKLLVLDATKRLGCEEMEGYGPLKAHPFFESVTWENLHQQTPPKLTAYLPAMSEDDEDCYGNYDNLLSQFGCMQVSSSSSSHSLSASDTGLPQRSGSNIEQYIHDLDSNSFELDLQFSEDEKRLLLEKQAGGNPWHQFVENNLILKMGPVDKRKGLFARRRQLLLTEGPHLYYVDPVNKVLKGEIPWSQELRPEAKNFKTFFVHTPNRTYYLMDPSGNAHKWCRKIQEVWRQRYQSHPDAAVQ
The description is as above. It counts as biochemical.
Excerpt: as §1

For another series, the system named is Src kinase. Described as above. It counts as biochemical.
Excerpt: as §1

Another series relates to K562 cells. The series is described as follows: Alamar blue proliferation assay of liposomal WBZ—1 formulations. It counts as cell-based. The following applies: calculated from previous experiments with a similar system. As to the method:
FIG. 12. K562 cells derived from chronic myeloid leukemia (CML) tumors and treated with WBZ—1 liposomal formulation using drug:lipid ratio 1:10. Cells were plated in a 96 well plate at a concentration of 10,000 cells per well and were treated 2 hours later. After 48 hours incubation, an Alamar blue assay was performed. Cells proliferation was expressed as the percentage of proliferating cells compared to the untreated. […] (*) This concentration is the maximum uptake that was calculated based on previous work using a similar system (Tari, 1996). The actual cellular uptake can be considerable lower, even 10^−3 times the effective concentration. The inventors can determine the exact uptake in future experiments using a radiolabeled lipid and prototype compound.
This modification should lead to a selective inhibition of the Bcr-Abl kinase, and indeed it does. […] In order to determine the best lipid formulation to be used, the inventors tested different WBZ—1:MDPC ratios. […] Cell proliferation inhibition was determined by Alamar blue assay after 48 hours of incubation and calculated as percentage of inhibition comparing with the untreated control. All formulations were nontoxic for the cells and a dose response curve was observed. The effective concentration ranges between 0.1 and 1 μM regardless of the lipid:drug ratio used. […]

The nature of another series: solubility (observation). It counts as physicochemical.

With `Cc1ccc(NC(=O)c2ccc(CN3CCN(C)CC3)cc2)cc1Nc1nccc(-c2cccnc2)n1` [imatinib, reference compound], the inhibition at 1 µM on C-Kit is ~85%. For the same compound, in the series with JNK1/2, the “JNK1/2 activation in cardiomyocytes” value was “activates JNKs”. Moreover, the “phosphorylation state of ERK1/2 in cardiomyocytes” value in the series on ERK1/2 is given as “increased”. The “BNP mRNA levels in the left ventricle, higher than untreated” value in series [1] is “about 58%”.

As to `CN[C@@H]1C[C@H]2O[C@@](C)([C@@H]1OC)n1c3ccccc3c3c4c(c5c6ccccc6n2c5c31)C(=O)N(C)C4` [methylated staurosporine derivative], the “inhibitory impact against Chk1” value on Chk1 is on record as “very low inhibitory impact”. For the same compound, the “inhibitory impact against PDK1” value on PDK1 is given as “very low inhibitory impact”. For the same compound, the “inhibition of Src compared with staurosporine levels” value with Src kinase was “improved”.

Regarding `Cc1ccc(NC(=O)c2ccc(CN3CCN(C)CC3)cc2)cc1Nc1nccc(-c2cnccc2C)n1` [WBZ—1, N-{5-[4-(4-methylpiperazinemethyl)-benzoylamido]-2-methylphenyl}-4-[3-(4-methyl)-pyridyl]-2-pyrimidine amine], in the series with K562 cells, the “uptake of WBZ—1 after 48 hours” value was 72 pmol. The solubility result in “solubility (observation)” is “insolubility”.

Values taken from patent publication US8466154B2, “Methods and compositions related to wrapping of dehydrons” (The Board of Regents of the University of Texas System, priority 2006, dated 2013).
